Results taken from ChEMBL document CHEMBL5532678, “Comprehensive Insights that Targeting PIM for Cancer Therapy: Prospects and Obstacles” (J Med Chem, 2024).

Biological target: T1, Receptor-type tyrosine-protein kinase FLT3 (Homo sapiens, UniProt P36888)
T1 sequence (P36888 whole entry): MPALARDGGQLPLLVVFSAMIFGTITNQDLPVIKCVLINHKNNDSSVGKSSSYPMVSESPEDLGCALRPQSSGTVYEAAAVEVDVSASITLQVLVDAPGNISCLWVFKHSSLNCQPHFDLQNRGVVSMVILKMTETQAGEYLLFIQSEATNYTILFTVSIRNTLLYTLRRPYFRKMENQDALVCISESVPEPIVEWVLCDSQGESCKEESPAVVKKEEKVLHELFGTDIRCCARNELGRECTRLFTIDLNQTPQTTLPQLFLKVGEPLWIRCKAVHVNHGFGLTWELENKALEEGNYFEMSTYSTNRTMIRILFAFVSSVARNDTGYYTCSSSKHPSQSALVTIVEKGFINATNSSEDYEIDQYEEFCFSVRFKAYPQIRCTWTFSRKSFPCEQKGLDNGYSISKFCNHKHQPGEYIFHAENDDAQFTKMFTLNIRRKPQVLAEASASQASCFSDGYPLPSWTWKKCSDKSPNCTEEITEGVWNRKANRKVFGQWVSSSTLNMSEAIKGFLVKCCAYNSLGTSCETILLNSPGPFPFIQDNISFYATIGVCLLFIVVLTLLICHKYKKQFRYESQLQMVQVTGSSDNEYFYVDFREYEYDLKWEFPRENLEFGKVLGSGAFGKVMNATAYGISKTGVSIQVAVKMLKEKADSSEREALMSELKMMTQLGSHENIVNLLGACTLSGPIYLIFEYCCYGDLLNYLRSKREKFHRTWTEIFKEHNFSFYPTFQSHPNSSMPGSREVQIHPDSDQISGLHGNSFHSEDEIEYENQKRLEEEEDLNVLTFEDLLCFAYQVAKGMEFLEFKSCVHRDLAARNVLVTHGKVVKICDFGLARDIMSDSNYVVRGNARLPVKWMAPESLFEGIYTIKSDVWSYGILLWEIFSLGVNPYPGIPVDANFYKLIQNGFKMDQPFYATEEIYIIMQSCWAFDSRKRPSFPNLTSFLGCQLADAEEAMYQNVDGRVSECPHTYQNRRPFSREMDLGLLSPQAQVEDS
Assay: Inhibition of FLT3 (unknown origin)

IC50: 0.11 nM
Compound: N[C@H]1CC[C@@H](Nc2cncc(-c3cccc(CC4SC(=O)NC4=O)c3)n2)CC1 (stereo partly specified)
